Experimental data: publication PMC10211317, “Identification of ARUK2002821 as an isoform-selective PI5P4Kα inhibitor” (RSC Medicinal Chemistry, 2023)

Legend:
Assay in all cases: Premier Screen kinase panel (MRC PPU)
Assay type in all cases: biochemical
ABL = ABL (Homo sapiens, UniProt P00519); details: ABL (Entrez ABL1), read-out: Residual activity (%)
Experimental: (§1) room temperature with shaking for 30 minutes. The kinase concentration in the eluates was measured by qPCR.
(§2) using ADP-GloTM assay at the MRC PPU International Centre for Kinase Profiling, University of Dundee.
(§3) Conducted by MRC PPU International Centre
(§4) Conducted by MRC PPU International Centre for […]

AMPK (hum) = AMPK (hum) (Homo sapiens, UniProt Q13131); details: AMPK (hum) (Entrez PRKAA1 + PRKAB2 + PRKAG1), read-out: Residual activity (%)
Experimental: as §1, §2, §3, §4

Aurora A = Aurora A (Homo sapiens, UniProt O14965); details: Aurora A (Entrez AURKA), read-out: Residual activity (%)
Experimental: as §1, §2, §3, §4

CSK = CSK (Homo sapiens, UniProt P41240); details: CSK (Entrez CSK), read-out: Residual activity (%)
Chain of CSK (P41240 whole entry): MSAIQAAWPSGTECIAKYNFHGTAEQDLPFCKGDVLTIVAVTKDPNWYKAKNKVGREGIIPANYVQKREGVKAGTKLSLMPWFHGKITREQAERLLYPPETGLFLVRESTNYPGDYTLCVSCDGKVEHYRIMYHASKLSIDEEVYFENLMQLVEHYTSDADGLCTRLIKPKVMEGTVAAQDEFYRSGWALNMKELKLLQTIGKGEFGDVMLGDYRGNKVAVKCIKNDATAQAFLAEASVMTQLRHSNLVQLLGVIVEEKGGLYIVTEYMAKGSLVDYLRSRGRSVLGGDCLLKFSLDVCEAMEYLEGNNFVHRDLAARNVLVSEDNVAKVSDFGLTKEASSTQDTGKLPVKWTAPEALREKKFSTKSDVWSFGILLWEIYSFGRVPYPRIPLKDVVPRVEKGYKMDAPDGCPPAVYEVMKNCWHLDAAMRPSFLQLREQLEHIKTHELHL
Experimental: as §1, §2, §3, §4

DYRK1A = DYRK1A (Homo sapiens, UniProt Q13627); details: DYRK1A (Entrez DYRK1A), read-out: Residual activity (%)
Experimental: as §1, §2, §3, §4

EPH-A2 = EPH-A2 (Homo sapiens, UniProt P29317); details: EPH-A2 (Entrez EPHA2), read-out: Residual activity (%)
Experimental: as §1, §2, §3, §4

EPH-A4 = EPH-A4 (Homo sapiens, UniProt P54764); details: EPH-A4 (Entrez EPHA4), read-out: Residual activity (%)
Experimental: as §1, §2, §3, §4

ERK8 = ERK8 (Homo sapiens, UniProt Q8TD08); details: ERK8 (Entrez MAPK15), read-out: Residual activity (%)
Chain of ERK8 (Q8TD08 whole entry): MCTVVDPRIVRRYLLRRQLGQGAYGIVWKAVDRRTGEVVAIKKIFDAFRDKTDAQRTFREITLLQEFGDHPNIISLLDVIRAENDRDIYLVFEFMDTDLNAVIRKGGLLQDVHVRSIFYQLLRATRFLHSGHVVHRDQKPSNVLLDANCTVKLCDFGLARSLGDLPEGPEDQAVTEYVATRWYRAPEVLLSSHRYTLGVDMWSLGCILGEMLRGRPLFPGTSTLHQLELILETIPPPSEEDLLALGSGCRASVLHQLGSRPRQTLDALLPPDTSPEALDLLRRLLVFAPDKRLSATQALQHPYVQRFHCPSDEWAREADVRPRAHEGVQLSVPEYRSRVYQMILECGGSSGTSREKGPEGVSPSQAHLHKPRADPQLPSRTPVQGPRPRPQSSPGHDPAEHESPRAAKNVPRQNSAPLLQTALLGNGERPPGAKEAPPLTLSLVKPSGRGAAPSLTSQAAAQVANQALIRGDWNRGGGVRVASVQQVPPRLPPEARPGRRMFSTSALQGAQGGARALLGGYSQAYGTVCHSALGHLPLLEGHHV
Experimental: as §1, §2, §3, §4

GSK3b = GSK3b (Homo sapiens, UniProt P49841); details: GSK3b (Entrez GSK3B), read-out: Residual activity (%)
Experimental: as §1, §2, §3, §4

HIPK2 = HIPK2 (Homo sapiens, UniProt Q9H2X6); details: HIPK2 (Entrez HIPK2), read-out: Residual activity (%)
Experimental: as §1, §2, §3, §4

HIPK3 = HIPK3 (Homo sapiens, UniProt Q9H422); details: HIPK3 (Entrez HIPK3), read-out: Residual activity (%)
Chain of HIPK3 (Q9H422 whole entry): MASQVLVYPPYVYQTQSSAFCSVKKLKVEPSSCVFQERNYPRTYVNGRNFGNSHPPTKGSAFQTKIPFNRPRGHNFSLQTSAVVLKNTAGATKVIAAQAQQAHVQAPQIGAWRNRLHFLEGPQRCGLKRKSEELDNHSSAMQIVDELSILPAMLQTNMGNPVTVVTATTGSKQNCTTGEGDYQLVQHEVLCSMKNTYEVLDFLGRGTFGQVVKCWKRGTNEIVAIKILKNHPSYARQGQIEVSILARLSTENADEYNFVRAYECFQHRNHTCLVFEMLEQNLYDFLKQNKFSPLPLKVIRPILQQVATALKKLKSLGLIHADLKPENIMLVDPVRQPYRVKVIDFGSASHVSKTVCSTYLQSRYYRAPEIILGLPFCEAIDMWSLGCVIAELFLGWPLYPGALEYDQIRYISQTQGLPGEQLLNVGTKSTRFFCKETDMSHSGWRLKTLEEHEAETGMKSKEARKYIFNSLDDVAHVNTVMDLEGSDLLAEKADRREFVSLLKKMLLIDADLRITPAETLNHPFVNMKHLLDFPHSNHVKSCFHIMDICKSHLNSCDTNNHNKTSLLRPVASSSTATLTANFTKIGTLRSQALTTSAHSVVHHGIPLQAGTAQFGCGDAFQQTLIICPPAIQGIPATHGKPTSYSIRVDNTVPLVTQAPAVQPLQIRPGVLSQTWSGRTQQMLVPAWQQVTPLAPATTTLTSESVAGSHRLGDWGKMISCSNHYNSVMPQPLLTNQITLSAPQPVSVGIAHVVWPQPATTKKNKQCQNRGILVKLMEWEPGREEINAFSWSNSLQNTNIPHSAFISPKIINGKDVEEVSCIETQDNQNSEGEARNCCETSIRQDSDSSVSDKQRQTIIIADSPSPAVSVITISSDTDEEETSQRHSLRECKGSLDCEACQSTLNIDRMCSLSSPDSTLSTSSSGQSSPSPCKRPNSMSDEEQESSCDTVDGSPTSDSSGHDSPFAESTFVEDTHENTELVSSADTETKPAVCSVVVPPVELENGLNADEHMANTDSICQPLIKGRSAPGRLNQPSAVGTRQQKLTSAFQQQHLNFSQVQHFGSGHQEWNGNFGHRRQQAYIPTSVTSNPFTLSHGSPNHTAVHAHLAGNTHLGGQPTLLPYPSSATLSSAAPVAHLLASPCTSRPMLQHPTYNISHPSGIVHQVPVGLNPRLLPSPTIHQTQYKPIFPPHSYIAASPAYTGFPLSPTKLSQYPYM
Experimental: as §1, §2, §3, §4

JAK3 = JAK3 (Homo sapiens, UniProt P52333); details: JAK3 (Entrez JAK3), read-out: Residual activity (%)
Experimental: as §1, §2, §3, §4

MAP4K5 = MAP4K5 (Homo sapiens, UniProt Q9Y4K4); details: MAP4K5 (Entrez MAP4K5), read-out: Residual activity (%)
Experimental: as §1, §2, §3, §4

MAPKAP-K3 = MAPKAP-K3 (Homo sapiens, UniProt Q16644); details: MAPKAP-K3 (Entrez MAPKAPK3), read-out: Residual activity (%)
Experimental: as §1, §2, §3, §4

MARK3 = MARK3 (Homo sapiens, UniProt P27448); details: MARK3 (Entrez MARK3), read-out: Residual activity (%)
Chain of MARK3 (P27448 whole entry): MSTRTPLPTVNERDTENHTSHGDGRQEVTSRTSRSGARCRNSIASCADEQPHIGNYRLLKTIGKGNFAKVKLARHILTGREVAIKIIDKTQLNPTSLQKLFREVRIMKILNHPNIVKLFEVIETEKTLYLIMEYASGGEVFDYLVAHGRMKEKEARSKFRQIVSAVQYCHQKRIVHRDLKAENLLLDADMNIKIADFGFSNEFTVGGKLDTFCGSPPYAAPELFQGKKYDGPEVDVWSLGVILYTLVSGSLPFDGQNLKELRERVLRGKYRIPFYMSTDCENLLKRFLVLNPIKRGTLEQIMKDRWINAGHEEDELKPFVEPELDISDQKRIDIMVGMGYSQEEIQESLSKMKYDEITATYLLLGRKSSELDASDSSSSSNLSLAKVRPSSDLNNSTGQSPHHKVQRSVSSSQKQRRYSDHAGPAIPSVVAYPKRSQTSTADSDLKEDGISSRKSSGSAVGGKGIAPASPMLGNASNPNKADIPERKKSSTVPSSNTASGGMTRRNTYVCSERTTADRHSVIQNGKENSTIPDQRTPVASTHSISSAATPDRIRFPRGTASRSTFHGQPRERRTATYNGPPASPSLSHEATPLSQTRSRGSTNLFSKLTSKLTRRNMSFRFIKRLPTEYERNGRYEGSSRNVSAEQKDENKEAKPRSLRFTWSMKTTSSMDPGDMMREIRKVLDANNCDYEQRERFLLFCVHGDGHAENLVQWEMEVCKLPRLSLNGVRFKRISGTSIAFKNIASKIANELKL
Experimental: as §1, §2, §3, §4

MLK1 = MLK1 (Homo sapiens, UniProt P80192); details: MLK1 (Entrez MAP3K9), read-out: Residual activity (%)
Experimental: as §1, §2, §3, §4

MLK3 = MLK3 (Homo sapiens, UniProt Q16584); details: MLK3 (Entrez MAP3K11), read-out: Residual activity (%)
Experimental: as §1, §2, §3, §4

MST4 = MST4 (Homo sapiens, UniProt Q9P289); details: MST4 (Entrez STK26), read-out: Residual activity (%)
Experimental: as §1, §2, §3, §4

NUAK1 = NUAK1 (Homo sapiens, UniProt O60285); details: NUAK1 (Entrez NUAK1), read-out: Residual activity (%)
Experimental: as §1, §2, §3, §4

PAK5 = PAK5 (Homo sapiens, UniProt Q9P286); details: PAK5 (Entrez PAK5), read-out: Residual activity (%)
Experimental: as §1, §2, §3, §4

PINK = PINK (Tribolium castaneum, UniProt D6WMX4); details: PINK (Entrez PINK1), read-out: Residual activity (%)
Experimental: as §1, §2, §3, §4

PKCz = PKCz (Homo sapiens, UniProt Q05513); details: PKCz (Entrez PRKCZ), read-out: Residual activity (%)
Experimental: as §1, §2, §3, §4

PKD1 = PKD1 (Homo sapiens, UniProt Q15139); details: PKD1 (Entrez PKD1), read-out: Residual activity (%)
Chain of PKD1 (Q15139 whole entry): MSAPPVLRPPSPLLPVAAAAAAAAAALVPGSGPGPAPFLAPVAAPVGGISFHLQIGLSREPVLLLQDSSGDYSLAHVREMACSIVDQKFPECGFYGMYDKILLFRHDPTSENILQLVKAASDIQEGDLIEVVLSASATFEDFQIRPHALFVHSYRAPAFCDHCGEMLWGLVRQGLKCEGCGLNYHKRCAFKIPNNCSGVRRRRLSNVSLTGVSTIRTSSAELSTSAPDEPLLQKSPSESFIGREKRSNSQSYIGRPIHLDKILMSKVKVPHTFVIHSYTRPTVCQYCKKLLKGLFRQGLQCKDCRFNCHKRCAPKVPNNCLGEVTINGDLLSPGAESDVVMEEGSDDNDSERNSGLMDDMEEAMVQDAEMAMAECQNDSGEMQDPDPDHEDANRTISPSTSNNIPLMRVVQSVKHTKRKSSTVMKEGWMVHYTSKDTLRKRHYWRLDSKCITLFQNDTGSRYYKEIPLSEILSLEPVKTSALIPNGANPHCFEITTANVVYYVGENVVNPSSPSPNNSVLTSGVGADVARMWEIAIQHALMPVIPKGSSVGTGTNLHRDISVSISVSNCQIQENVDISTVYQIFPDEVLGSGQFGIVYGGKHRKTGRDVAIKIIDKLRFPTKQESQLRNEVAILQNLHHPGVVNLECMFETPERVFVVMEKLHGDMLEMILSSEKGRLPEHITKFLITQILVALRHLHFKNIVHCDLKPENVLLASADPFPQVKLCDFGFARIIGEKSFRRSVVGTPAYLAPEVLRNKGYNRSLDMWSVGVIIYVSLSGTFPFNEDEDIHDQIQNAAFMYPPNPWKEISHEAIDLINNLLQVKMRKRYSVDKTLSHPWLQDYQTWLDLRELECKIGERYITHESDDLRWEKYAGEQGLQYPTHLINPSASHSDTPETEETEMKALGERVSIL
Experimental: as §1, §2, §3, §4

RSK1 = RSK1 (Homo sapiens, UniProt Q15418); details: RSK1 (Entrez RPS6KA1), read-out: Residual activity (%)
Experimental: as §1, §2, §3, §4

S6K1 = S6K1 (Homo sapiens, UniProt P23443); details: S6K1 (Entrez RPS6KB1), read-out: Residual activity (%)
Experimental: as §1, §2, §3, §4

SmMLCK = SmMLCK (Homo sapiens, UniProt Q15746); details: SmMLCK (Entrez MYLK), read-out: Residual activity (%)
Experimental: as §1, §2, §3, §4

Src = Src (Homo sapiens, UniProt P12931); details: Src (Entrez SRC), read-out: Residual activity (%)
Experimental: as §1, §2, §3, §4

TIE2 = TIE2 (Homo sapiens, UniProt Q02763); details: TIE2 (Entrez TEK), read-out: Residual activity (%)
Chain of TIE2 (Q02763 23-1124): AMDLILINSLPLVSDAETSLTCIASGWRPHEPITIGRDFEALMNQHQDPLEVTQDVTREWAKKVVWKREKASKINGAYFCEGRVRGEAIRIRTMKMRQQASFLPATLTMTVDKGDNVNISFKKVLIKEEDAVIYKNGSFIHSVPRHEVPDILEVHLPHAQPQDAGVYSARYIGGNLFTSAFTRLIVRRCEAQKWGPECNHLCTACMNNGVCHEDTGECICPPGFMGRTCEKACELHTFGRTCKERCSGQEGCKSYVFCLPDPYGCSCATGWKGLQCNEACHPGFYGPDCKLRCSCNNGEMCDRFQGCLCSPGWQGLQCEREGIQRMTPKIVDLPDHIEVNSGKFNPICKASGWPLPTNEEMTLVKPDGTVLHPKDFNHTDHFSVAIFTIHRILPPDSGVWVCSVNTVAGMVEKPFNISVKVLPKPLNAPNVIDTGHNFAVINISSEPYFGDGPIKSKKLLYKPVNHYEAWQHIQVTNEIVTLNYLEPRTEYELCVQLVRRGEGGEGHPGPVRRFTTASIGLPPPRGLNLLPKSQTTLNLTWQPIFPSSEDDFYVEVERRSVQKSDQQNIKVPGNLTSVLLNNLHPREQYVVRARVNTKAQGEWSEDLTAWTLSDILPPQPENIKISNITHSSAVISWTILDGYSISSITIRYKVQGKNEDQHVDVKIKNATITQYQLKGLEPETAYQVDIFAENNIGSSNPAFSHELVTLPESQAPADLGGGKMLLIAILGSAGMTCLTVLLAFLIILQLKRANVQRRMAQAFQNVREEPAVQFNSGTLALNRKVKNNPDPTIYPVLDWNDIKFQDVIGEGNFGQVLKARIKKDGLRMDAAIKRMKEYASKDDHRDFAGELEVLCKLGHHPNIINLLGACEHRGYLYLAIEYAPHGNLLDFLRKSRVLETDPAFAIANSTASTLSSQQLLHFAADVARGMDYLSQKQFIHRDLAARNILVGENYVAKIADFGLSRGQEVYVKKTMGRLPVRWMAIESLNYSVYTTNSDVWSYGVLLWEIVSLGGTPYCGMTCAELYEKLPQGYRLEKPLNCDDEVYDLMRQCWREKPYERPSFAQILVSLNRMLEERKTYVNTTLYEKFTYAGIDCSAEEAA
Experimental: as §1, §2, §3, §4

ULK1 = ULK1 (Homo sapiens, UniProt O75385); details: ULK1 (Entrez ULK1), read-out: Residual activity (%)
Experimental: as §1, §2, §3, §4

VEG-FR = VEG-FR (Homo sapiens, UniProt P17948); details: VEG-FR (Entrez FLT1), read-out: Residual activity (%)
Experimental: as §1, §2, §3, §4

p38d MAPK = p38d MAPK (Homo sapiens, UniProt O15264); details: p38d MAPK (Entrez MAPK12), read-out: Residual activity (%)
Experimental: as §1, §2, §3, §4

Structure (SMILES): COc1ccc(Nc2ncnc3c2ccn3-c2ccc(C)c(C)c2)cc1Cl [compound 36]
- remaining activity at 1 µM (ABL): 89%
- remaining activity at 1 µM (AMPK (hum)): 94%
- remaining activity at 1 µM (Aurora A): 81%
- remaining activity at 1 µM (CSK): 104%
- remaining activity at 1 µM (DYRK1A): 89%
- remaining activity at 1 µM (EPH-A2): 83%
- remaining activity at 1 µM (EPH-A4): 101%
- remaining activity at 1 µM (ERK8): 110%
- remaining activity at 1 µM (GSK3b): 102%
- remaining activity at 1 µM (HIPK2): 90%
- remaining activity at 1 µM (HIPK3): 76%
- remaining activity at 1 µM (JAK3): 63%
- remaining activity at 1 µM (MAP4K5): 80%
- remaining activity at 1 µM (MAPKAP-K3): 101%
- remaining activity at 1 µM (MARK3): 104%
- remaining activity at 1 µM (MLK1): 70%
- remaining activity at 1 µM (MLK3): 83%
- remaining activity at 1 µM (MST4): 99%
- remaining activity at 1 µM (NUAK1): 138%
- remaining activity at 1 µM (PAK5): 94%
- remaining activity at 1 µM (PINK): 73%
- remaining activity at 1 µM (PKCz): 111%
- remaining activity at 1 µM (PKD1): 93%
- remaining activity at 1 µM (RSK1): 109%
- remaining activity at 1 µM (S6K1): 89%
- remaining activity at 1 µM (SmMLCK): 99%
- remaining activity at 1 µM (Src): 93%
- remaining activity at 1 µM (TIE2): 105%
- remaining activity at 1 µM (ULK1): 102%
- remaining activity at 1 µM (VEG-FR): 99%
- remaining activity at 1 µM (p38d MAPK): 128%
